What follows are molecules tested against T1, Calcium/calmodulin-dependent protein kinase type IV (Homo sapiens) (UniProt Q16566).
T1 sequence (whole entry): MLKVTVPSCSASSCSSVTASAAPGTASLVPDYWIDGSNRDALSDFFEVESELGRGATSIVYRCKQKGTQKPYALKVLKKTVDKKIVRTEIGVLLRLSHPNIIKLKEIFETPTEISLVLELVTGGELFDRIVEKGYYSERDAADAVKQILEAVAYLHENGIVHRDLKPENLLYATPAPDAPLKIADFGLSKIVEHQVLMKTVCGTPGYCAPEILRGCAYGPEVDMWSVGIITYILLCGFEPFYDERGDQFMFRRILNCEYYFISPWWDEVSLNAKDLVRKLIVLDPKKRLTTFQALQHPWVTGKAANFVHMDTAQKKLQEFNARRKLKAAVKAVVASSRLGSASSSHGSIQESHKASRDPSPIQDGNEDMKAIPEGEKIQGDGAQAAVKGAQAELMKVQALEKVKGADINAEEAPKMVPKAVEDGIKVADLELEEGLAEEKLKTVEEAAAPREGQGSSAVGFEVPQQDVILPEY

SMILES	ΔTm [°C]
CCOc1ccc(/C=C2/SC(=O)N(CCN)C2=O)cc1 [HIAZOLIDINEDIONE1]	0.4
O=c1cc(N2CCOCC2)oc2c1ccc1ccccc12	-0.1
O=C1NC(=O)C(c2cn(CCCn3ccnc3)c3ccccc23)=C1Nc1ccccc1	-0.7
N#CCCc1ccc2c(c1)-c1[nH]c3ccc([N+](=O)[O-])cc3c1CC(=O)N2 [ALSTERPAULLONE 2]	0.4
Nc1cccc(-c2cc3c(Oc4cccc(O)c4)ncnc3[nH]2)c1	0.2
O=C(O)c1cc(N(Cc2ccccc2O)Cc2cc(O)ccc2O)ccc1O [LAVENDUSTIN A]	0.5

Each molecule was assayed against Cyclin-dependent kinase 2 (Homo sapiens, UniProt P24941).

SMILES	ΔTm [°C]
CCOc1ccc(/C=C2/SC(=O)N(CCN)C2=O)cc1 [HIAZOLIDINEDIONE1]	-0.1
O=c1cc(N2CCOCC2)oc2c1ccc1ccccc12	0.5
O=C1NC(=O)C(c2cn(CCCn3ccnc3)c3ccccc23)=C1Nc1ccccc1	0.4
N#CCCc1ccc2c(c1)-c1[nH]c3ccc([N+](=O)[O-])cc3c1CC(=O)N2 [ALSTERPAULLONE 2]	6.6
Nc1cccc(-c2cc3c(Oc4cccc(O)c4)ncnc3[nH]2)c1	0.9
O=C(O)c1cc(N(Cc2ccccc2O)Cc2cc(O)ccc2O)ccc1O [LAVENDUSTIN A]	1.3

These molecules were tested against Casein kinase I isoform gamma-2 (Homo sapiens) (UniProt P78368).
Casein kinase I isoform gamma-2 (Homo sapiens), sequence (P78368 whole entry, looked up, canonical isoform): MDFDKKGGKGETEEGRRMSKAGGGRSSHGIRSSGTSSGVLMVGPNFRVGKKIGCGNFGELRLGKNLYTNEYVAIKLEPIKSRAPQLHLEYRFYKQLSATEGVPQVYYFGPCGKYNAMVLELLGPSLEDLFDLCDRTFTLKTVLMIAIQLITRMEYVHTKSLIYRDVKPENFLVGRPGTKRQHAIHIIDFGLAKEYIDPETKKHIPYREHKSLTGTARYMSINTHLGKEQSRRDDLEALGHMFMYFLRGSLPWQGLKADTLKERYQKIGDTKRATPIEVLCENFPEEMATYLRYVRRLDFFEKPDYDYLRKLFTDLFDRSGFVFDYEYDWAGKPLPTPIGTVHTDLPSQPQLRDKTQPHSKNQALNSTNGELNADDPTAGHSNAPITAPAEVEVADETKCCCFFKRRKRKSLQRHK

SMILES	ΔTm [°C]
CCOc1ccc(/C=C2/SC(=O)N(CCN)C2=O)cc1 [HIAZOLIDINEDIONE1]	0.6
O=c1cc(N2CCOCC2)oc2c1ccc1ccccc12	0.6
O=C1NC(=O)C(c2cn(CCCn3ccnc3)c3ccccc23)=C1Nc1ccccc1	1
N#CCCc1ccc2c(c1)-c1[nH]c3ccc([N+](=O)[O-])cc3c1CC(=O)N2 [ALSTERPAULLONE 2]	2
Nc1cccc(-c2cc3c(Oc4cccc(O)c4)ncnc3[nH]2)c1	1.2
O=C(O)c1cc(N(Cc2ccccc2O)Cc2cc(O)ccc2O)ccc1O [LAVENDUSTIN A]	0.6

The molecules below were run against Serine/threonine-protein kinase PAK 4 (Homo sapiens) (UniProt O96013).
Serine/threonine-protein kinase PAK 4 (Homo sapiens), sequence (O96013 whole entry, looked up): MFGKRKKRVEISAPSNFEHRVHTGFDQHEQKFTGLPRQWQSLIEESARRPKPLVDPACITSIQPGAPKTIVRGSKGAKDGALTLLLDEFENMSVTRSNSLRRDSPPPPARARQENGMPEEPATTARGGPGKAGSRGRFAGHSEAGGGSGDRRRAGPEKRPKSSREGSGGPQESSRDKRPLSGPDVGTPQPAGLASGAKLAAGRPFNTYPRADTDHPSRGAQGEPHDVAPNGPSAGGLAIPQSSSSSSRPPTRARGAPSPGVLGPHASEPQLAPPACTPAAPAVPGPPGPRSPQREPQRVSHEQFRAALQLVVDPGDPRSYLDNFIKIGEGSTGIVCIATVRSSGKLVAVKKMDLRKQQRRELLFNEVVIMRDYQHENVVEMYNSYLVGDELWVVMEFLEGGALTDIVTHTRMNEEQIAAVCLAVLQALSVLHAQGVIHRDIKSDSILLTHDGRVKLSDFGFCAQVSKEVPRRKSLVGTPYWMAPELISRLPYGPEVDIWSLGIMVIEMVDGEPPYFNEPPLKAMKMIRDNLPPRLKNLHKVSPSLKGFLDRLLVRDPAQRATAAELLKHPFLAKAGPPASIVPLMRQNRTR

SMILES	ΔTm [°C]
CCOc1ccc(/C=C2/SC(=O)N(CCN)C2=O)cc1 [HIAZOLIDINEDIONE1]	0.6
O=c1cc(N2CCOCC2)oc2c1ccc1ccccc12	0.2
O=C1NC(=O)C(c2cn(CCCn3ccnc3)c3ccccc23)=C1Nc1ccccc1	0.7
N#CCCc1ccc2c(c1)-c1[nH]c3ccc([N+](=O)[O-])cc3c1CC(=O)N2 [ALSTERPAULLONE 2]	4.3
Nc1cccc(-c2cc3c(Oc4cccc(O)c4)ncnc3[nH]2)c1	2.8
O=C(O)c1cc(N(Cc2ccccc2O)Cc2cc(O)ccc2O)ccc1O [LAVENDUSTIN A]	0.1

Each molecule was assayed against Serine/threonine-protein kinase pim-3 (Homo sapiens) (UniProt Q86V86).

SMILES	ΔTm [°C]
CCOc1ccc(/C=C2/SC(=O)N(CCN)C2=O)cc1 [HIAZOLIDINEDIONE1]	0.5
O=c1cc(N2CCOCC2)oc2c1ccc1ccccc12	2
O=C1NC(=O)C(c2cn(CCCn3ccnc3)c3ccccc23)=C1Nc1ccccc1	-0.3
N#CCCc1ccc2c(c1)-c1[nH]c3ccc([N+](=O)[O-])cc3c1CC(=O)N2 [ALSTERPAULLONE 2]	1.9
Nc1cccc(-c2cc3c(Oc4cccc(O)c4)ncnc3[nH]2)c1	0.3
O=C(O)c1cc(N(Cc2ccccc2O)Cc2cc(O)ccc2O)ccc1O [LAVENDUSTIN A]	0.4

What follows are molecules tested against Serine/threonine-protein kinase RIO2 (Homo sapiens) (UniProt Q9BVS4).
Serine/threonine-protein kinase RIO2 (Homo sapiens), sequence (Q9BVS4 whole entry, looked up): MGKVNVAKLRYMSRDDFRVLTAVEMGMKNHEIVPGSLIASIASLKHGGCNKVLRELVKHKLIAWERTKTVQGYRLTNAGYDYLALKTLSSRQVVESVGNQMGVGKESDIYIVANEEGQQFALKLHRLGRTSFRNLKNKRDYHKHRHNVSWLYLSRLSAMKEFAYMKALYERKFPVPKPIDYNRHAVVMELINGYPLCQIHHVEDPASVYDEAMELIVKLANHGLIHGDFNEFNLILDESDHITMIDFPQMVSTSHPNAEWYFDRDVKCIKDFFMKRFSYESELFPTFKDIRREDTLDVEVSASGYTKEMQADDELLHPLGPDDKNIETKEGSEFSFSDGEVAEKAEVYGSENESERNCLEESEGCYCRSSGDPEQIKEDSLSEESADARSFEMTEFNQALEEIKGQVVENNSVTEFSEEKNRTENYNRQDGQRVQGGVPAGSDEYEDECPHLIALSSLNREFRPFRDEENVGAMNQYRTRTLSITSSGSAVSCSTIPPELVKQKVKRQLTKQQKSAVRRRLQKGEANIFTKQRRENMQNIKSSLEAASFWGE

SMILES	ΔTm [°C]
CCOc1ccc(/C=C2/SC(=O)N(CCN)C2=O)cc1 [HIAZOLIDINEDIONE1]	-0.2
O=c1cc(N2CCOCC2)oc2c1ccc1ccccc12	0.4
O=C1NC(=O)C(c2cn(CCCn3ccnc3)c3ccccc23)=C1Nc1ccccc1	6.1
N#CCCc1ccc2c(c1)-c1[nH]c3ccc([N+](=O)[O-])cc3c1CC(=O)N2 [ALSTERPAULLONE 2]	1.2
Nc1cccc(-c2cc3c(Oc4cccc(O)c4)ncnc3[nH]2)c1	2.4
O=C(O)c1cc(N(Cc2ccccc2O)Cc2cc(O)ccc2O)ccc1O [LAVENDUSTIN A]	0

The molecules below were run against Ribosomal protein S6 kinase alpha-3 (Homo sapiens) (UniProt P51812).
Ribosomal protein S6 kinase alpha-3 (Homo sapiens), sequence (P51812 whole entry): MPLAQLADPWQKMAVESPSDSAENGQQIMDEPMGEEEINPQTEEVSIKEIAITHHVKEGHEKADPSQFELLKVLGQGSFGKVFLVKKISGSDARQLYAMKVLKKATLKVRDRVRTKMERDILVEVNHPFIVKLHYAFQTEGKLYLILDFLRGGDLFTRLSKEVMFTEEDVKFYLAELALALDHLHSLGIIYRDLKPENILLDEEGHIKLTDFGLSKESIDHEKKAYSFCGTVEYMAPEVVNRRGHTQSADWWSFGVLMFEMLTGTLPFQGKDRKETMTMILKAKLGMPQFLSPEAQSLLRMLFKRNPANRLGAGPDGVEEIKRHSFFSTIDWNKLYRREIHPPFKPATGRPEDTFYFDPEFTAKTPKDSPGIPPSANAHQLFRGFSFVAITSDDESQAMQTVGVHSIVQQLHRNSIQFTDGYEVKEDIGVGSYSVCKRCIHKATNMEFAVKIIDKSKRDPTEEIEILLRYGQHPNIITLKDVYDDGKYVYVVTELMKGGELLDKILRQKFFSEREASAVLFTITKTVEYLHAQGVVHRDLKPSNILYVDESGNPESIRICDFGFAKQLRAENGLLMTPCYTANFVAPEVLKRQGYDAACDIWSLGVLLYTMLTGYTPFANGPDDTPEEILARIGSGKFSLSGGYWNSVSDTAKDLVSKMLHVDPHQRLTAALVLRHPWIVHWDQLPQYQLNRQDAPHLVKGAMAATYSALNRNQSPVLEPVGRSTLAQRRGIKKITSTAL

SMILES	ΔTm [°C]
CCOc1ccc(/C=C2/SC(=O)N(CCN)C2=O)cc1 [HIAZOLIDINEDIONE1]	0
O=c1cc(N2CCOCC2)oc2c1ccc1ccccc12	0.3
O=C1NC(=O)C(c2cn(CCCn3ccnc3)c3ccccc23)=C1Nc1ccccc1	0.5
N#CCCc1ccc2c(c1)-c1[nH]c3ccc([N+](=O)[O-])cc3c1CC(=O)N2 [ALSTERPAULLONE 2]	4.1
Nc1cccc(-c2cc3c(Oc4cccc(O)c4)ncnc3[nH]2)c1	0.4
O=C(O)c1cc(N(Cc2ccccc2O)Cc2cc(O)ccc2O)ccc1O [LAVENDUSTIN A]	-0.2

What follows are molecules tested against Serine/threonine-protein kinase 16 (Homo sapiens) (UniProt O75716).
Serine/threonine-protein kinase 16 (Homo sapiens), sequence (O75716 whole entry): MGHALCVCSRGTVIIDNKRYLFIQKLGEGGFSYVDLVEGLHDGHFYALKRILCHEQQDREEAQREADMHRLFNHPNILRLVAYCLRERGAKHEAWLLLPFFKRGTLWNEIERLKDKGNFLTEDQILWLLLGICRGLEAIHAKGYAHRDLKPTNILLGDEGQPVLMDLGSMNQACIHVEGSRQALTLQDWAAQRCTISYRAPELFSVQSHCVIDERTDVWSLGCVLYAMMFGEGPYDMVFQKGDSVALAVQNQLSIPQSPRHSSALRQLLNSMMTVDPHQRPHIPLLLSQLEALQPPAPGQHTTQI

SMILES	ΔTm [°C]
CCOc1ccc(/C=C2/SC(=O)N(CCN)C2=O)cc1 [HIAZOLIDINEDIONE1]	-0.1
O=c1cc(N2CCOCC2)oc2c1ccc1ccccc12	0.4
O=C1NC(=O)C(c2cn(CCCn3ccnc3)c3ccccc23)=C1Nc1ccccc1	0.6
N#CCCc1ccc2c(c1)-c1[nH]c3ccc([N+](=O)[O-])cc3c1CC(=O)N2 [ALSTERPAULLONE 2]	3
Nc1cccc(-c2cc3c(Oc4cccc(O)c4)ncnc3[nH]2)c1	3.5
O=C(O)c1cc(N(Cc2ccccc2O)Cc2cc(O)ccc2O)ccc1O [LAVENDUSTIN A]	2.6

Each molecule was assayed against T2, Serine/threonine-protein kinase 4 (Homo sapiens) (UniProt Q13043).
T2 sequence (whole entry): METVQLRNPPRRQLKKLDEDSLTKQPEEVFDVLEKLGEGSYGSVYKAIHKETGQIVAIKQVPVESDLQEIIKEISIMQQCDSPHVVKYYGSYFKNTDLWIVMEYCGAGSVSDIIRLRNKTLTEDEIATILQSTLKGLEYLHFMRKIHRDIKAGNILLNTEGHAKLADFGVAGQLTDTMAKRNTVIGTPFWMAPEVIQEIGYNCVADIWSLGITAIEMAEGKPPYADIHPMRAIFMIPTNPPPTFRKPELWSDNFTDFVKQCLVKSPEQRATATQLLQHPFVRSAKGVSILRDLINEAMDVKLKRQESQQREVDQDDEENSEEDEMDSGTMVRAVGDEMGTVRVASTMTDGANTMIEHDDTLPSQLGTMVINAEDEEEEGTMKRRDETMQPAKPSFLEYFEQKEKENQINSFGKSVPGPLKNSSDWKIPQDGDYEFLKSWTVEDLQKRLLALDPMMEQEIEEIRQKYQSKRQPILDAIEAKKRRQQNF

SMILES	ΔTm [°C]
CCOc1ccc(/C=C2/SC(=O)N(CCN)C2=O)cc1 [HIAZOLIDINEDIONE1]	0.4
O=c1cc(N2CCOCC2)oc2c1ccc1ccccc12	0.2
O=C1NC(=O)C(c2cn(CCCn3ccnc3)c3ccccc23)=C1Nc1ccccc1	0.8
N#CCCc1ccc2c(c1)-c1[nH]c3ccc([N+](=O)[O-])cc3c1CC(=O)N2 [ALSTERPAULLONE 2]	5.9
Nc1cccc(-c2cc3c(Oc4cccc(O)c4)ncnc3[nH]2)c1	5.1
O=C(O)c1cc(N(Cc2ccccc2O)Cc2cc(O)ccc2O)ccc1O [LAVENDUSTIN A]	0.5

Each molecule was assayed against T3, Lymphokine-activated killer T-cell-originated protein kinase (Homo sapiens) (UniProt Q96KB5).
T3 sequence (whole entry): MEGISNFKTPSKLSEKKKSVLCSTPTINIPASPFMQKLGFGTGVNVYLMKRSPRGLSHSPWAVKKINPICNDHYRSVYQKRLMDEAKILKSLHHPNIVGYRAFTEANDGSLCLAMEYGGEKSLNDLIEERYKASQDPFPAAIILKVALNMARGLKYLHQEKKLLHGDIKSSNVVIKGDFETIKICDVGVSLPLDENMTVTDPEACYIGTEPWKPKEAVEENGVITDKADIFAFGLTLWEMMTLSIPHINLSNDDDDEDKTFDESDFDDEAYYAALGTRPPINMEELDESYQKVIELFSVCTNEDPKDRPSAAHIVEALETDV

SMILES	ΔTm [°C]
CCOc1ccc(/C=C2/SC(=O)N(CCN)C2=O)cc1 [HIAZOLIDINEDIONE1]	0.2
O=c1cc(N2CCOCC2)oc2c1ccc1ccccc12	0.7
O=C1NC(=O)C(c2cn(CCCn3ccnc3)c3ccccc23)=C1Nc1ccccc1	0.8
N#CCCc1ccc2c(c1)-c1[nH]c3ccc([N+](=O)[O-])cc3c1CC(=O)N2 [ALSTERPAULLONE 2]	0
Nc1cccc(-c2cc3c(Oc4cccc(O)c4)ncnc3[nH]2)c1	0.6
O=C(O)c1cc(N(Cc2ccccc2O)Cc2cc(O)ccc2O)ccc1O [LAVENDUSTIN A]	0

What follows are molecules tested against Serine/threonine-protein kinase VRK2 (Homo sapiens) (UniProt Q86Y07).
Serine/threonine-protein kinase VRK2 (Homo sapiens), sequence (Q86Y07 whole entry): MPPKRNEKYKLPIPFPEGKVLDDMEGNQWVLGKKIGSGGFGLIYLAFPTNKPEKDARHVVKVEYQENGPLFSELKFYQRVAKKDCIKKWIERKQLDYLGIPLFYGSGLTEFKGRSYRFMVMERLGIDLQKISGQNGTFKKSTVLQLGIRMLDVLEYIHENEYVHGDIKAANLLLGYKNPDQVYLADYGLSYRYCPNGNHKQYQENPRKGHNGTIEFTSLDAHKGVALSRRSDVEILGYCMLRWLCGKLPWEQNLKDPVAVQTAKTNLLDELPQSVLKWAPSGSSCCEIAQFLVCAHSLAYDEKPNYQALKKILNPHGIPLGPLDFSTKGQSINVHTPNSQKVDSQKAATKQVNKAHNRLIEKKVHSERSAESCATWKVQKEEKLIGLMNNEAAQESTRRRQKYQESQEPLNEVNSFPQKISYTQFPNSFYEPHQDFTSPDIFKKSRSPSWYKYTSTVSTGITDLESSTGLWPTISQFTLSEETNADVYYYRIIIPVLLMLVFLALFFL

SMILES	ΔTm [°C]
CCOc1ccc(/C=C2/SC(=O)N(CCN)C2=O)cc1 [HIAZOLIDINEDIONE1]	0.1
O=c1cc(N2CCOCC2)oc2c1ccc1ccccc12	-0.1
O=C1NC(=O)C(c2cn(CCCn3ccnc3)c3ccccc23)=C1Nc1ccccc1	0.4
N#CCCc1ccc2c(c1)-c1[nH]c3ccc([N+](=O)[O-])cc3c1CC(=O)N2 [ALSTERPAULLONE 2]	0.7
Nc1cccc(-c2cc3c(Oc4cccc(O)c4)ncnc3[nH]2)c1	0.5
O=C(O)c1cc(N(Cc2ccccc2O)Cc2cc(O)ccc2O)ccc1O [LAVENDUSTIN A]	-0.6

— ChEMBL document CHEMBL1145498, “A systematic interaction map of validated kinase inhibitors with Ser/Thr kinases” (Proc Natl Acad Sci U S A, 2007)
